Test results: patent publication US9169241B2, “Quinolinyloxyphenylsulfonamides” (Max-Planck-Gesellschaft Zur Forderung der Wissenschaften …, priority 2009, dated 2015)

How the values were obtained:
[1] = tested on: U118; assay: Apoptosis assay (Cellomics, nucleus condensation); format: cell-based; settings: Table III, read-out: Apoptosis induction in U118
Summary of the method: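 Apoptosis scored by automated microscopy of Hoechst-stained live nuclei, 24 and 48 h after treatment with 0.39–12.5 μM compound or DMSO.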

[2] = target: T1, wild type AXL (wtAXL) receptor tyrosine kinase (Homo sapiens, UniProt P30530); assay: NIH-3T3-AXL cellular kinase assay (pY-AXL-ELISA); format: cell-based; settings: NIH-3T3-AXL (clone 22) cells, serum depleted, compounds 1 h; Table Ia
T1 construct: WtAXL cDNA was cloned into vector pLXSN(ESK) and transfected into Phoenix E packaging cells; expressed in transfected cells; host or cells: NIH3T3 N7 (mouse fibroblasts), retrovirally infected, clone 22
T1 sequence (P30530 26-894): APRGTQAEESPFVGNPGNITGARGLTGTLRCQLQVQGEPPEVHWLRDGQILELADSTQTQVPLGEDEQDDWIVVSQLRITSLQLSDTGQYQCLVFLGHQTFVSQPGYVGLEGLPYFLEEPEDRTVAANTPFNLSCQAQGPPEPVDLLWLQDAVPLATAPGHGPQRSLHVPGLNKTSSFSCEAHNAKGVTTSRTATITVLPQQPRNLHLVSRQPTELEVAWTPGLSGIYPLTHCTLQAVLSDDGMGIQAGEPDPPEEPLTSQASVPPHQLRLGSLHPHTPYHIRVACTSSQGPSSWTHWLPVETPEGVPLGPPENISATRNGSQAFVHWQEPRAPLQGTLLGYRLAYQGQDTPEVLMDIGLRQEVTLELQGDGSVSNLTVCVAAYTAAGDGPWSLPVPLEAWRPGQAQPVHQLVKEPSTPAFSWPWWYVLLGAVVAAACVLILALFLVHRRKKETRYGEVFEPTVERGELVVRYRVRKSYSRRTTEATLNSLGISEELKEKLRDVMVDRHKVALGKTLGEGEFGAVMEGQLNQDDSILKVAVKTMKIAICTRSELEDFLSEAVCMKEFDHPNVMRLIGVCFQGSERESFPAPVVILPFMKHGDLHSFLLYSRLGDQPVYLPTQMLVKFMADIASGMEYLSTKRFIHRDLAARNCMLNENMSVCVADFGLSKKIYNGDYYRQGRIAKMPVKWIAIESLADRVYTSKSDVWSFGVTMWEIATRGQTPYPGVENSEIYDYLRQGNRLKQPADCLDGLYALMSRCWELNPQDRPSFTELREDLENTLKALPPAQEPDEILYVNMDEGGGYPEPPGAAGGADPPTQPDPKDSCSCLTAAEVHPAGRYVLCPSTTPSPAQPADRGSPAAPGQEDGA
Summary of the method: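 NIH3T3 cells stably expressing human wild-type AXL (retroviral, puromycin-selected clones) were treated with serial compound dilutions for 1 h and lysed. AXL tyrosine phosphorylation was measured by ELISA on the lysates: biotinylated 4G10 anti-phosphotyrosine, streptavidin-alkaline phosphatase, AttoPhos fluorescence at 430/560 nm after 90 min.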

| SMILES | IC50 [1] [µM] | IC50 [2] [µM] |
| --- | --- | --- |
| COc1cc2c(Oc3ccc(NS(=O)(=O)c4cccc(-c5ccccc5)c4)cc3F)ccnc2cc1OCCCN1CCCCC1 [Example 8, Biphenyl-3-sulfonic acid {3-fluoro-4-[6-methoxy-7-(3-piperidin-1-yl-propoxy)-quinolin-4-loxy]-phenyl}-amide] | ≤ 12.5 | < 0.5 |
| COc1cc2c(Oc3ccc(NS(=O)(=O)c4cccc(Oc5ccccc5)c4)cc3F)ccnc2cc1OCCCN1CCCC(C)C1 (stereo not shown) [Example 59, N-(3-Fluoro-4-{6-methoxy-7-[3-(3-methyl-piperidin-1-yl)-propoxy]-quinolin-4-yloxy}-phenyl)-3-phenoxy-benzenesulfonamide] | ≤ 12.5 | < 0.5 |
| COc1cc2c(Oc3ccc(NS(=O)(=O)c4ccccc4[N+](=O)[O-])cc3F)ccnc2cc1OCCCN1CCCCC1 [Example 7, N-{3-Fluoro-4-[6-methoxy-7-(3-piperidin-1-yl-propoxy)-quinolin-4-yloxy]-phenyl}-2-nitro-benzenesulfonamide] | 12.5 to 50 | < 0.5 |
| COc1cc2c(Oc3ccc(NS(=O)(=O)c4ccccc4Cl)cc3F)ccnc2cc1OCCCN1CCCC(C)C1 (stereo not shown) [Example 38, 2-Chloro-N-(3-fluoro-4-{6-methoxy-7-[3-(3-methyl-piperidin-1-yl)-propoxy]-quinolin-4-yloxy}-phenyl)-benzenesulfonamide] | ≤ 12.5 | < 0.5 |
| COc1cc2c(Oc3ccc(NS(=O)(=O)c4ccc(F)c(Cl)c4)cc3F)ccnc2cc1OCCCN1CCCC(C)C1 (stereo not shown) [Example 57, 3-Chloro-4-fluoro-N-(3-fluoro-4-{6-methoxy-7-[3-(3-methyl-piperidin-1-yl)-propoxy]-quinolin-4-yloxy}-phenyl)-benzenesulfonamide] | ≤ 12.5 | < 0.5 |
| COc1cc2c(Oc3ccc(NS(=O)(=O)c4cc(Cl)cc(Cl)c4OC)cc3F)ccnc2cc1OCCCN1CCN(C)CC1 [Example 35, 3,5-Dichloro-N-(3-fluoro-4-{6-methoxy-7-[3-(4-methyl-piperazin-1-yl)-propoxy]-quinolin-4-yloxy}-phenyl)-2-methoxy-benzenesulfonamide] | ≤ 12.5 | < 0.5 |

Second part, the compound after the results:

| IC50 [1] [µM] | IC50 [2] [µM] | SMILES |
| --- | --- | --- |
| ≤ 12.5 | < 0.5 | COc1cc2c(Oc3ccc(NS(=O)(=O)c4c(F)cccc4F)cc3F)ccnc2cc1OCCN1CCOCC1 [Example 82, 2,6-Difluoro-N-{3-fluoro-4-[6-methoxy-7-(2-morpholin-4-yl-ethoxy)-quinolin-4-yloxy]-phenyl}-benzenesulfonamide] |
| ≤ 12.5 | < 0.5 | COc1cc2c(Oc3ccc(NS(=O)(=O)c4ccccc4C(F)(F)F)cc3Cl)ccnc2cc1OCCCN1CCN(C)CC1 [Example 87, N-(3-Chloro-4-{6-methoxy-7-[3-(4-methyl-piperazin-1-yl)-propoxy]-quinolin-4-yloxy}-phenyl)-2-trifluoromethyl-benzenesulfonamide] |
